According to the supplement of paper PMC11061612:

How the values were obtained:
Capivasertib = compound: C1CN(CCC1(C(=O)N[C@@H](CCO)C2=CC=C(C=C2)Cl)N)C3=NC=NC4=C3C=CN4 [Capivasertib]
Method in brief: (§1)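 Cancer cell lines were seeded into 1536-well plates in 7.5 μl medium (DMEM/F12 or RPMI, 10% FBS), held 24 hours at 37°C and 5% CO2, and dosed for 72 hours with final DMSO typically 0.2%. Luminescence from CellTiter-Glo 2.0, scaled between blank-well and DMSO-well means, served as viability. The single-agent IC50 was obtained from dose-response fits with a non-linear mixed effects model, each fit being a two-parameter logistic curve.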

AZD1775 = compound: C=CCn1c(=O)c2cnc(Nc3ccc(N4CCN(C)CC4)cc3)nc2n1-c1cccc(C(C)(C)O)n1 [AZD1775]; conditions: max 3 µM
Method in brief: as §1

Trametinib = compound: CC(=O)Nc1cccc(-n2c(=O)n(C3CC3)c(=O)c3c(Nc4ccc(I)cc4F)n(C)c(=O)c(C)c32)c1 [Trametinib]; conditions: max 1 µM
Method in brief: as §1

Palbociclib = compound: CC(=O)c1c(C)c2cnc(Nc3ccc(N4CCNCC4)cn3)nc2n(C2CCCC2)c1=O [Palbociclib]; conditions: max 10 µM
Method in brief: as §1

AZD1390 = compound: CC(C)n1c(=O)n(C)c2cnc3cc(F)c(-c4ccc(OCCCN5CCCCC5)nc4)cc3c21 [AZD1390]; conditions: max 0.3 µM
Method in brief: as §1

Venetoclax = compound: CC1(C)CCC(CN2CCN(c3ccc(C(=O)NS(=O)(=O)c4ccc(NCC5CCOCC5)c([N+](=O)[O-])c4)c(Oc4cnc5[nH]ccc5c4)c3)CC2)=C(c2ccc(Cl)cc2)C1 [Venetoclax]; conditions: max 1 µM
Method in brief: as §1

Dasatinib = compound: CC1=C(C(=CC=C1)Cl)NC(=O)C2=CN=C(S2)NC3=CC(=NC(=N3)C)N4CCN(CC4)CCO [Dasatinib]; conditions: max 2 µM
Method in brief: as §1

SG3199 = compound: CC1=CN2[C@@H](C1)C=NC3=CC(=C(C=C3C2=O)OC)OCCCCCOC4=C(C=C5C(=C4)N=C[C@@H]6CC(=CN6C5=O)C)OC [SG3199]; conditions: max 0.001 µM
Method in brief: as §1

AZD2811 = compound: CCN(CCO)CCCOc1ccc2c(Nc3cc(CC(=O)Nc4cccc(F)c4)[nH]n3)ncnc2c1 [AZD2811]; conditions: max 1 µM
Method in brief: as §1

SN-38 = compound: CCc1c2c(nc3ccc(O)cc13)-c1cc3c(c(=O)n1C2)COC(=O)[C@]3(O)CC [SN-38]; conditions: max 0.3 µM
Method in brief: as §1

AZD0156 = compound: CN(C)CCCOc1ccc(-c2ccc3ncc4c(c3c2)n(C2CCOCC2)c(=O)n4C)cn1 [AZD0156]; conditions: max 3 µM
Method in brief: as §1

AZD4320 = compound: CN(CC[C@H](CSC1=CC=CC=C1)NC2=C(C=C(C=C2)S(=O)(=O)NC(=O)C3=CC=C(C=C3)N4CCC(CC4)[C@H](C5=CC=CC=C5C6=CC=C(C=C6)Cl)O)S(=O)(=O)C(F)(F)F)CCO [AZD4320]; conditions: max 1 µM
Method in brief: as §1

Alisertib = compound: COc1cc(Nc2ncc3c(n2)-c2ccc(Cl)cc2C(c2c(F)cccc2OC)=NC3)ccc1C(=O)O [Alisertib]; conditions: max 10 µM
Method in brief: as §1

Gefitinib = compound: COc1cc2ncnc(Nc3ccc(F)c(Cl)c3)c2cc1OCCCN1CCOCC1 [Gefitinib]; conditions: max 10 µM
Method in brief: as §1

Prexasertib = compound: COc1cccc(OCCCN)c1-c1cc(Nc2cnc(C#N)cn2)n[nH]1 [Prexasertib]; conditions: max 1 µM
Method in brief: as §1

Doxorubicin = compound: COc1cccc2c1C(=O)c1c(O)c3c(c(O)c1C2=O)C[C@@](O)(C(=O)CO)C[C@@H]3O[C@H]1C[C@H](N)[C@H](O)[C@H](C)O1 [Doxorubicin]; conditions: max 1 µM
Method in brief: as §1

AZD5153 = compound: COc1nnc2ccc(N3CCC(c4ccc(OCCN5CCN(C)C(=O)[C@H]5C)cc4)CC3)nn12 [AZD5153]; conditions: max 1 µM
Method in brief: as §1

Lapatinib = compound: CS(=O)(=O)CCNCc1ccc(-c2ccc3ncnc(Nc4ccc(OCc5cccc(F)c5)c(Cl)c4)c3c2)o1 [Lapatinib]; conditions: max 10 µM
Method in brief: as §1

AZD8186 = compound: C[C@@H](Nc1cc(F)cc(F)c1)c1cc(C(=O)N(C)C)cc2c(=O)cc(N3CCOCC3)oc12 [AZD8186]; conditions: max 3 µM
Method in brief: as §1

Crizotinib = compound: C[C@@H](Oc1cc(-c2cnn(C3CCNCC3)c2)cnc1N)c1c(Cl)ccc(F)c1Cl [Crizotinib]; conditions: max 10 µM
Method in brief: as §1

Savolitinib = compound: C[C@@H](c1ccc2nccn2c1)n1nnc2ncc(-c3cnn(C)c3)nc21 [Savolitinib]; conditions: max 1 µM
Method in brief: as §1

AZD6738 = compound: C[C@@H]1COCCN1C2=NC(=NC(=C2)C3(CC3)[S@](=N)(=O)C)C4=C5C=CNC5=NC=C4 [AZD6738]; conditions: max 10 µM
Method in brief: as §1

AZD5991 = compound: Cc1c2c(nn1C)CSCc1cc(n(C)n1)CSc1cc(c3ccccc3c1)OCCCc1c(C(=O)O)n(C)c3c-2c(Cl)ccc13 [AZD5991]; conditions: max 1 µM
Method in brief: as §1

AZD7648 = compound: Cc1cc2ncnn2cc1Nc1ncc2c(n1)n(C1CCOCC1)c(=O)n2C [AZD7648]; conditions: max 10 µM
Method in brief: as §1

Taselisib = compound: Cc1nc(-c2cn3c(n2)-c2ccc(-c4cnn(C(C)(C)C(N)=O)c4)cc2OCC3)n(C(C)C)n1 [Taselisib]; conditions: max 10 µM
Method in brief: as §1

Selumetinib = compound: Cn1cnc2c(F)c(Nc3ccc(Br)cc3Cl)c(C(=O)NOCCO)cc21 [Selumetinib]; conditions: max 10 µM
Method in brief: as §1

Olaparib = compound: O=C(c1cc(Cc2n[nH]c(=O)c3ccccc23)ccc1F)N1CCN(C(=O)C2CC2)CC1 [Olaparib]
Method in brief: as §1

Cell Line | IC50, cell viability 72 h (Capivasertib; max 10 µM) | IC50, cell viability 72 h (AZD1775) | IC50, cell viability 72 h (Trametinib) | IC50, cell viability 72 h (Palbociclib) | IC50, cell viability 72 h (AZD1390) | IC50, cell viability 72 h (Venetoclax) | IC50, cell viability 72 h (Dasatinib) | IC50, cell viability 72 h (SG3199) | IC50, cell viability 72 h (AZD2811) | IC50, cell viability 72 h (SN-38) | IC50, cell viability 72 h (AZD0156) | IC50, cell viability 72 h (AZD4320) | IC50, cell viability 72 h (Alisertib) | IC50, cell viability 72 h (Gefitinib) | IC50, cell viability 72 h (Prexasertib) | IC50, cell viability 72 h (Doxorubicin) | IC50, cell viability 72 h (AZD5153) | IC50, cell viability 72 h (Lapatinib) | IC50, cell viability 72 h (AZD8186) | IC50, cell viability 72 h (Crizotinib) | IC50, cell viability 72 h (Savolitinib) | IC50, cell viability 72 h (AZD6738) | IC50, cell viability 72 h (AZD5991) | IC50, cell viability 72 h (AZD7648) | IC50, cell viability 72 h (Taselisib) | IC50, cell viability 72 h (Selumetinib) | IC50, cell viability 72 h (Olaparib; max 10 µM) | IC50, cell viability 72 h (Capivasertib; max 3 µM) | IC50, cell viability 72 h (Olaparib; max 3 µM)
NCI-H661 (Non-Small Cell Lung Carcinoma) | > 10000 nM | 765 nM | > 1000 nM | > 10000 nM | > 300 nM | > 1000 nM | > 2000 nM | > 1 nM | > 1000 nM | > 300 nM | > 3000 nM | > 1000 nM | > 10000 nM | > 10000 nM | 46.8 nM | > 1000 nM | > 1000 nM | > 10000 nM | > 3000 nM | > 10000 nM | > 1000 nM | > 10000 nM | > 1000 nM | > 10000 nM | > 10000 nM | > 10000 nM | > 10000 nM |  | 
SNU-398 (Hepatocellular Carcinoma) | > 10000 nM | 701 nM | 849 nM | > 10000 nM | > 300 nM | > 1000 nM | > 2000 nM | > 1 nM | 801 nM | > 300 nM | > 3000 nM | > 1000 nM | 4320 nM | > 10000 nM | 777 nM | > 1000 nM | 941 nM | > 10000 nM | > 3000 nM | > 10000 nM | > 1000 nM | > 10000 nM | 150 nM | > 10000 nM | > 10000 nM | > 10000 nM | > 10000 nM |  | 
HCC1419 (Breast Carcinoma) |  | > 3000 nM | > 1000 nM |  | > 300 nM | > 1000 nM |  | > 1 nM | > 1000 nM | > 300 nM | > 3000 nM | > 1000 nM | > 10000 nM | > 10000 nM | > 1000 nM | > 1000 nM | > 1000 nM |  | > 3000 nM |  | > 1000 nM | > 10000 nM | > 1000 nM | > 10000 nM | 7760 nM | > 10000 nM | > 10000 nM | > 3000 nM | 
SUP-B15 (B-Lymphoblastic Leukemia) | 8510 nM | 692 nM | 627 nM | > 10000 nM | > 300 nM | 3.48 nM | 10.5 nM | > 1 nM | 34 nM | 2.7 nM | > 3000 nM | 2.13 nM | 38.4 nM | > 10000 nM | 21.7 nM | 369 nM | 98 nM | > 10000 nM | > 3000 nM | 1380 nM | > 1000 nM | 2110 nM | 38.9 nM | > 10000 nM | > 10000 nM | > 10000 nM | 2020 nM |  | 
BICR10 (Oral Cavity Carcinoma) |  | 413 nM |  |  |  |  |  |  |  |  | > 3000 nM |  |  |  |  |  |  |  |  |  |  |  |  |  |  |  |  | 2520 nM | > 3000 nM
PC-3 (Prostate Carcinoma) | > 10000 nM | > 3000 nM | > 1000 nM | > 10000 nM | > 300 nM | > 1000 nM | > 2000 nM | > 1 nM | > 1000 nM | 82.7 nM | > 3000 nM | > 1000 nM | > 10000 nM | > 10000 nM | > 1000 nM | > 1000 nM | > 1000 nM | > 10000 nM | > 3000 nM | > 10000 nM | > 1000 nM | > 10000 nM | > 1000 nM | > 10000 nM | > 10000 nM | > 10000 nM | > 10000 nM |  | 
SK-GT-2 (Gastric Carcinoma) | > 10000 nM | 848 nM | > 1000 nM | > 10000 nM | > 300 nM | > 1000 nM | > 2000 nM | > 1 nM | > 1000 nM | > 300 nM | > 3000 nM | > 1000 nM | > 10000 nM | 4890 nM | 76.7 nM | > 1000 nM | > 1000 nM | 1130 nM | > 3000 nM | > 10000 nM | > 1000 nM | > 10000 nM | > 1000 nM | > 10000 nM | 6640 nM | > 10000 nM | > 10000 nM |  | 
DAN-G (Pancreatic Carcinoma) | > 10000 nM | 405 nM | 675 nM | > 10000 nM | > 300 nM | > 1000 nM | > 2000 nM | > 1 nM | > 1000 nM | > 300 nM | > 3000 nM | > 1000 nM | > 10000 nM | > 10000 nM | 72.7 nM | > 1000 nM | > 1000 nM | > 10000 nM | > 3000 nM | > 10000 nM | > 1000 nM | 5490 nM | > 1000 nM | > 10000 nM | 718 nM | > 10000 nM | > 10000 nM |  | 
ESO51 (Esophageal Adenocarcinoma) | > 10000 nM | 298 nM | 35 nM | > 10000 nM | > 300 nM | > 1000 nM | > 2000 nM | > 1 nM | > 1000 nM | > 300 nM | > 3000 nM | > 1000 nM | > 10000 nM | > 10000 nM | 42.4 nM | > 1000 nM | 354 nM | > 10000 nM | > 3000 nM | 186 nM | 14.2 nM | 1790 nM | > 1000 nM | > 10000 nM | > 10000 nM | > 10000 nM | > 10000 nM |  | 
